These results are taken from patent US10421761B2, “Compounds for kinase modulation, and indications therefor” (Plexxikon Inc., priority 2013, dated 2019).

Where two headings read alike, the source gives them in different places.

One assay concerns the target T1, BRAF V600E (Homo sapiens, UniProt P15056, V600E).
T1 construct: purchased Upstate Biotechnology
In words: BRAF V600E biochemical kinase activity assay (AlphaScreen, biotin-MEK1 substrate). To be noted: BRAF V600E biochemical inhibitory activity. In general terms: In Alpha technology, singlet oxygen from a donor bead excites a nearby acceptor bead.

In the next assay the test system is B9 (HRAS Q61L) cell line. As to the kind of experiment: B9 P-ERK cell activation assay (AlphaScreen). Format: cell-based, mouse. To be noted: Mus musculus, P-ERK cell activation, B9, read-out: Cell activity (EC50 μM) B9_pERK. The gist of the method: (§1)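 Phospho-ERK1/2 (Thr202/Tyr204) in lysates quantified via AlphaScreen bead proximity, after one-hour, 37° C. exposure of cells to eight compound concentrations. Lines: IPC-298 human melanoma with activated NRAS; B9 mouse squamous carcinoma with activated HRAS.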

The test system of assay [1] is IPC-298 (NRAS Q61L) cell line. In words: IPC-298 P-ERK cell activation assay (AlphaScreen). Format: cell-based, human. To be noted: Homo sapiens, P-ERK cell activation, IPC-298, read-out: Cell activity (EC50 μM) IPC-298_P-ERK. The gist of the method:
as §1

Assay [2] deals with A375 (BRAF V600E) cell line. As to the kind of experiment: A375 P-ERK inhibition assay (AlphaScreen). Particulars: Homo sapiens, A-375; A375_P-ERK. The class given is cell-based, human. Put shortly:
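Phospho-ERK1/2 (Thr202/Tyr204) detected in lysates by AlphaScreen proximity signal, pairing a total-ERK antibody with a phospho-specific antibody. Before lysis, A375 cells received compound as an 8-point titration for one hour at 37° C.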

T1 sequence (P15056 whole entry V600E): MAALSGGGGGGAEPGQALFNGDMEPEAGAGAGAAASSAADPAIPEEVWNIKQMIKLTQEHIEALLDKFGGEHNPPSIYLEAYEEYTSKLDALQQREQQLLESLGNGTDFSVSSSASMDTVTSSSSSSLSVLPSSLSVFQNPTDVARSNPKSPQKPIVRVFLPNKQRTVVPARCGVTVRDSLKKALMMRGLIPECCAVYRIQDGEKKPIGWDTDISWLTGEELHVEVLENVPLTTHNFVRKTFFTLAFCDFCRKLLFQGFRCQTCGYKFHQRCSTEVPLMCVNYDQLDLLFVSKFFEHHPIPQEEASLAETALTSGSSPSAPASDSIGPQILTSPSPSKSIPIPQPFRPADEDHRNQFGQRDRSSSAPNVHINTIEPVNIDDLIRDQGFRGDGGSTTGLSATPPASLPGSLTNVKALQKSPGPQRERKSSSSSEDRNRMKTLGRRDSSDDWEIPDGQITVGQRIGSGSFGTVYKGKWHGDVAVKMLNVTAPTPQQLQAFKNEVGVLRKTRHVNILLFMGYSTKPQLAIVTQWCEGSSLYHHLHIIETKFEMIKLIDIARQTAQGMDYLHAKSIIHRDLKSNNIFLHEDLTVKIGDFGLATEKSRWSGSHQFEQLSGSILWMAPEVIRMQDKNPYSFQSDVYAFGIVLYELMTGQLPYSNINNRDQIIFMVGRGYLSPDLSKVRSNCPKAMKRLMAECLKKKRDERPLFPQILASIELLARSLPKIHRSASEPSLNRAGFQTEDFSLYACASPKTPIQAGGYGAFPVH

On to `N#Cc1ccnc2[nH]cc(C(=O)c3c(F)ccc(NS(=O)(=O)C4CCCCC4)c3F)c12` [P-2018, N-[3-(4-cyano-1H-pyrrolo[2,3-b]pyridine-3-carbonyl)-2,4-difluoro-phenyl]cyclohexanesulfonamide], for which the IC50 is 0.0001 to 1 µM against BRAF V600E and more than 10 µM in assay [2]. Further, the 50% effective concentration (EC50) (in the assay with B9 (HRAS Q61L) cell line (numeric bounds); in assay [1] (numeric bounds)) was more than 10 µM each time.
Take `O=C(c1cc(Cl)cc(NS(=O)(=O)N2CC[C@@H](F)C2)c1F)c1c[nH]c2ncc(-c3cnc(C4CC4)nc3)cc12` [P-2174, (3R)—N-[5-chloro-3-[5-(2-cyclopropylpyrimidin-5-yl)-1H-pyrrolo[2,3-b]pyridine-3-carbonyl]-2-fluoro-phenyl]-3-fluoro-pyrrolidine-1-sulfonamide]: the IC50 (on BRAF V600E; in assay [2]) was 0.0001 to 1 µM in each case. Besides, the concentration giving a half-maximal response (EC50) (with B9 (HRAS Q61L) cell line (numeric bounds); in assay [1] (numeric bounds)) was more than 10 µM throughout.
On to `O=C(c1cccc(NS(=O)(=O)N2CCCC2)c1F)c1c[nH]c2ncnc(C3CC3)c12` [P-2078, N-[3-(4-cyclopropyl-7H-pyrrolo[2,3-d]pyrimidine-5-carbonyl)-2-fluoro-phenyl]pyrrolidine-1-sulfonamide], for which the IC50 (against BRAF V600E; in assay [2]) was 0.0001 to 1 µM throughout. For the same molecule, the EC50 (with B9 (HRAS Q61L) cell line (numeric bounds); in assay [1] (numeric bounds)) was more than 10 µM in each case.
In the case of `COCCNc1ncnc2[nH]cc(C(=O)c3cccc(NS(=O)(=O)N4CCCC4)c3F)c12` [P-2104, N-[2-fluoro-3-[4-(2-methoxyethylamino)-7H-pyrrolo[2,3-d]pyrimidine-5-carbonyl]phenyl]pyrrolidine-1-sulfonamide], the IC50 (on BRAF V600E; in assay [2]) was 0.0001 to 1 µM each time. Further, the concentration for a half-maximal effect (EC50) (in the assay with B9 (HRAS Q61L) cell line (numeric bounds); in assay [1] (numeric bounds)) was more than 10 µM each time.
As for `O=C(c1cccc(NS(=O)(=O)N2CCCC2)c1F)c1c[nH]c2ncnc(NC[C@@H]3CCCO3)c12` [P-2082, N-[2-fluoro-3-[4-[[(2S)-tetrahydrofuran-2-yl]methylamino]-7H-pyrrolo[2,3-d]pyrimidine-5-carbonyl]phenyl]pyrrolidine-1-sulfonamide], the half-maximal inhibitory concentration (IC50) (at BRAF V600E; in assay [2]) was 0.0001 to 1 µM in each case. In addition, the concentration for a half-maximal effect (EC50) (in the assay with B9 (HRAS Q61L) cell line (numeric bounds); in assay [1] (numeric bounds)) was more than 10 µM throughout.
Regarding `CCN(C)S(=O)(=O)Nc1cccc(-c2nc(C(C)(C)C)sc2-c2ccnc(OC)n2)c1F` [P-2088, 2-tert-butyl-4-[3-[[ethyl(methyl)sulfamoyl]amino]-2-fluoro-phenyl]-5-(2-methoxypyrimidin-4-yl)thiazole], the IC50 (on BRAF V600E; in assay [2]) was 0.0001 to 1 µM throughout. Moreover, the EC50 (in the assay with B9 (HRAS Q61L) cell line (numeric bounds); in assay [1] (numeric bounds)) was more than 10 µM throughout.
`CN(C)CC(C)(C)CNc1ncnc2[nH]cc(C(=O)c3cccc(NS(=O)(=O)N4CCCC4)c3F)c12` [P-2113, N-[3-[4-[[3-(dimethylamino)-2,2-dimethyl-propyl]amino]-7H-pyrrolo[2,3-d]pyrimidine-5-carbonyl]-2-fluoro-phenyl]pyrrolidine-1-sulfonamide]: the half-maximal inhibitory concentration (IC50) (against BRAF V600E; in assay [2]) was 0.0001 to 1 µM in each case. Moreover, the half-maximal effective concentration (EC50) (in the assay on B9 (HRAS Q61L) cell line (numeric bounds); in assay [1] (numeric bounds)) was more than 10 µM each time.
With `COC(=O)N[C@@H](C)CNc1nccc(-c2nn(C(C)C)cc2-c2cc(Cl)cc(NS(=O)(=O)N(C)C)c2F)n1` [P-2166, methyl N-[(1S)-2-[[4-[4-[5-chloro-3-(dimethylsulfamoylamino)-2-fluoro-phenyl]-1-isopropyl-pyrazol-3-yl]pyrimidin-2-yl]amino]-1-methyl-ethyl]carbamate], the 50% inhibitory concentration (IC50) (on BRAF V600E; in assay [2]) was 0.0001 to 1 µM each time. Moreover, the EC50 in the assay with B9 (HRAS Q61L) cell line (class symbols) is 0.0001 to 1 µM; in assay [1] (numeric bounds), more than 10 µM.
As for `CC(C)Nc1ncnc2[nH]cc(C(=O)c3c(F)ccc(NS(=O)(=O)C4CCCCC4)c3F)c12` [P-2039, N-[2,4-difluoro-3-[4-(isopropylamino)-7H-pyrrolo[2,3-d]pyrimidine-5-carbonyl]phenyl]cyclohexanesulfonamide], the IC50 (against BRAF V600E; in assay [2]) was 0.0001 to 1 µM in each case. Moreover, the EC50 (with B9 (HRAS Q61L) cell line (numeric bounds); in assay [1] (numeric bounds)) was more than 10 µM each time.
As for `CCN(C)S(=O)(=O)Nc1cccc(-c2nc(C(C)(C)C)sc2-c2ccnc(N)n2)c1F` [P-2089, 5-(2-aminopyrimidin-4-yl)-2-tert-butyl-4-[3-[[ethyl(methyl)sulfamoyl]amino]-2-fluoro-phenyl]thiazole], the IC50 (at BRAF V600E; in assay [2]) was 0.0001 to 1 µM throughout. The EC50 (in the assay on B9 (HRAS Q61L) cell line (numeric bounds); in assay [1] (numeric bounds)) was more than 1 µM in each case.
Regarding `CCN(C)S(=O)(=O)Nc1cccc(C(=O)c2c[nH]c3ncnc(NCC(F)(F)F)c23)c1F` [P-2065, 5-[3-[[ethyl(methyl)sulfamoyl]amino]-2-fluoro-benzoyl]-4-(2,2,2-trifluoroethylamino)-7H-pyrrolo[2,3-d]pyrimidine], the IC50 (against BRAF V600E; in assay [2]) was 0.0001 to 1 µM in each case. The concentration for a half-maximal effect (EC50) (in the assay with B9 (HRAS Q61L) cell line (numeric bounds); in assay [1] (numeric bounds)) was more than 10 µM in each case.
With `O=C(c1c(F)ccc(NS(=O)(=O)N2CCOCC2)c1F)c1c[nH]c2ncncc12` [P-2031, N-[2,4-difluoro-3-(7H-pyrrolo[2,3-d]pyrimidine-5-carbonyl)phenyl]morpholine-4-sulfonamide], the IC50 was 1 to 10 µM against BRAF V600E and more than 10 µM in assay [2]. Besides, the EC50 (in the assay with B9 (HRAS Q61L) cell line (numeric bounds); in assay [1] (numeric bounds)) was more than 10 µM in each case.
Take `CN(C)S(=O)(=O)Nc1cccc(-c2nc(C(C)(C)C)sc2-c2ccnc(N)n2)c1F` [P-2093, 5-(2-aminopyrimidin-4-yl)-2-tert-butyl-4-[3-(dimethylsulfamoylamino)-2-fluoro-phenyl]thiazole]: the concentration for half-maximal inhibition (IC50) (at BRAF V600E; in assay [2]) was 0.0001 to 1 µM in each case. Besides, the half-maximal effective concentration (EC50) (in the assay on B9 (HRAS Q61L) cell line (numeric bounds); in assay [1] (numeric bounds)) was more than 1 µM throughout.
In the case of `CC(C)(C)c1nc(-c2cccc(NS(=O)(=O)N3CC[C@@H](F)C3)c2F)c(-c2ccnc(N)n2)s1` [P-2129, (3R)-N-[3-[5-(2-aminopyrimidin-4-yl)-2-tert-butyl-thiazol-4-yl]-2-fluoro-phenyl]-3-fluoro-pyrrolidine-1-sulfonamide], the 50% inhibitory concentration (IC50) (against BRAF V600E; in assay [2]) was 0.0001 to 1 µM each time. The EC50 (in the assay with B9 (HRAS Q61L) cell line (class symbols); in assay [1] (class symbols)) was 0.0001 to 1 µM in each case.
As to `CC(C)Nc1ncnc2[nH]cc(C(=O)c3c(F)ccc(NS(=O)(=O)N(C)C)c3F)c12` [P-2045, 5-[3-(dimethylsulfamoylamino)-2,6-difluoro-benzoyl]-4-(isopropylamino)-7H-pyrrolo[2,3-d]pyrimidine], the IC50 (against BRAF V600E; in assay [2]) was 0.0001 to 1 µM in each case. In addition, the EC50 (with B9 (HRAS Q61L) cell line (numeric bounds); in assay [1] (numeric bounds)) was more than 10 µM each time.
For `CCN(C)S(=O)(=O)Nc1ccc(F)c(C(=O)c2c[nH]c3ncnc(NC4CCC4)c23)c1F` [P-2101, 4-(cyclobutylamino)-5-[3-[[ethyl(methyl)sulfamoyl]amino]-2,6-difluoro-benzoyl]-7H-pyrrolo[2,3-d]pyrimidine], the IC50 (at BRAF V600E; in assay [2]) was 0.0001 to 1 µM each time. Also, the half-maximal effective concentration (EC50) (with B9 (HRAS Q61L) cell line (numeric bounds); in assay [1] (numeric bounds)) was more than 10 µM throughout.
As to `CC(=O)Nc1ccc(NC(=O)c2c(F)ccc(NS(=O)(=O)C3CCCC3)c2F)cn1` [P-2035, N-(6-acetamido-3-pyridyl)-3-(cyclopentylsulfonylamino)-2,6-difluoro-benzamide], the concentration for half-maximal inhibition (IC50) against BRAF V600E fell in the range of 0.0001 to 1 µM; in assay [2], 1 to 10 µM. Also, the EC50 (in the assay on B9 (HRAS Q61L) cell line (numeric bounds); in assay [1] (numeric bounds)) was more than 10 µM throughout.
Consider `CCC(C)S(=O)(=O)Nc1ccc(F)c(C(=O)c2c[nH]c3nccc(C#N)c23)c1F` (stereo not drawn) [P-2020, N-[3-(4-cyano-1H-pyrrolo[2,3-b]pyridine-3-carbonyl)-2,4-difluoro-phenyl]butane-2-sulfonamide], for which the IC50 (against BRAF V600E; in assay [2]) was 0.0001 to 1 µM throughout. The EC50 (in the assay with B9 (HRAS Q61L) cell line (numeric bounds); in assay [1] (numeric bounds)) was more than 10 µM in each case.
In the case of `CC(C)Nc1ncnc2[nH]cc(C(=O)c3c(F)ccc(NS(=O)(=O)C4CCC4)c3F)c12` [P-2043, N-[2,4-difluoro-3-[4-(isopropylamino)-7H-pyrrolo[2,3-d]pyrimidine-5-carbonyl]phenyl]cyclobutanesulfonamide], the IC50 (on BRAF V600E; in assay [2]) was 1 to 10 µM throughout. The concentration giving a half-maximal response (EC50) (in the assay on B9 (HRAS Q61L) cell line (numeric bounds); in assay [1] (numeric bounds)) was more than 10 µM in each case.
Take `COC(=O)N[C@@H](C)CNc1nccc(-c2nn(C(C)C)cc2-c2cc(Cl)cc(NS(=O)(=O)N3CCC3)c2F)n1` [P-2163, methyl N-[(1S)-2-[[4-[4-[3-(azetidin-1-ylsulfonylamino)-5-chloro-2-fluoro-phenyl]-1-isopropyl-pyrazol-3-yl]pyrimidin-2-yl]amino]-1-methyl-ethyl]carbamate]: the IC50 (at BRAF V600E; in assay [2]) was 1 to 10 µM each time. In addition, the EC50 (with B9 (HRAS Q61L) cell line (numeric bounds); in assay [1] (numeric bounds)) was more than 10 µM in each case.
`N#Cc1ccnc2[nH]cc(C(=O)c3c(F)ccc(NS(=O)(=O)N4CCOCC4)c3F)c12` [P-2022, N-[3-(4-cyano-1H-pyrrolo[2,3-b]pyridine-3-carbonyl)-2,4-difluoro-phenyl]morpholine-4-sulfonamide]: the 50% inhibitory concentration (IC50) (on BRAF V600E; in assay [2]) was 0.0001 to 1 µM in each case. Besides, the EC50 (in the assay on B9 (HRAS Q61L) cell line (numeric bounds); in assay [1] (numeric bounds)) was more than 10 µM throughout.

What is called IC50 is the concentration needed to halve the response being measured. Low readings indicate inhibition by little substance, high ones a need for much substance. The term EC50 denotes the midpoint of the concentration-response curve.
